Source: patent publication US12447159B2 (AELIS FARMA, priority 2018, dated 2025)

Key:
[1] = target: T1, hERG current (Homo sapiens, UniProt Q12809); experiment: hERG tail current in stably transfected HEK-293 cells (GLP); type: cell-based; settings: 100 nM, 1 μM and 10 μM
T1 construct: expressed in transfected cells; host or cells: HEK-293
Method: E-4031 was used as positive control and was tested in one separate HEK-293 cell to support the validity of the method used.
Cells were clamped to −80 mV, depolarised to 0 mV for 5 sec allowing activation of hERG current and repolarised to −50 mV for 5 sec allowing hERG tail current to deactivate. This experimental procedure was repeated at a frequency of 0.06 Hz. Currents were filtered at 1 kHz and acquired at the frequency of 2 kHz. Amplitude of hERG tail current was measured during the repolarizing pulse from 0 to −50 mV. […] Currents were measured before and after exposure to the test item.

[2] = tested on: male Wistar rats; experiment: Irwin test and body temperature in rats (GLP); type: in vivo; settings: 2, 9 and 36 mg/kg, single oral
Method: The study involved 4 groups of 6 male Wistar rats weighing between 154.0 and 185.9 g.
On study day, animals were firstly scored by the Irwin standardized observation battery and the body temperature was measured. […] Then the Irwin scores as well as measurement of body temperature were performed again at 1, 3, 6, 8 and 24 hours after the administration.

[3] = target: OATP1B1 (Homo sapiens, UniProt Q9Y6L6); experiment: Cellular transporter inhibition, CHO cells (fluorometry); settings: 10 μM
Chain of OATP1B1 (Q9Y6L6 whole entry): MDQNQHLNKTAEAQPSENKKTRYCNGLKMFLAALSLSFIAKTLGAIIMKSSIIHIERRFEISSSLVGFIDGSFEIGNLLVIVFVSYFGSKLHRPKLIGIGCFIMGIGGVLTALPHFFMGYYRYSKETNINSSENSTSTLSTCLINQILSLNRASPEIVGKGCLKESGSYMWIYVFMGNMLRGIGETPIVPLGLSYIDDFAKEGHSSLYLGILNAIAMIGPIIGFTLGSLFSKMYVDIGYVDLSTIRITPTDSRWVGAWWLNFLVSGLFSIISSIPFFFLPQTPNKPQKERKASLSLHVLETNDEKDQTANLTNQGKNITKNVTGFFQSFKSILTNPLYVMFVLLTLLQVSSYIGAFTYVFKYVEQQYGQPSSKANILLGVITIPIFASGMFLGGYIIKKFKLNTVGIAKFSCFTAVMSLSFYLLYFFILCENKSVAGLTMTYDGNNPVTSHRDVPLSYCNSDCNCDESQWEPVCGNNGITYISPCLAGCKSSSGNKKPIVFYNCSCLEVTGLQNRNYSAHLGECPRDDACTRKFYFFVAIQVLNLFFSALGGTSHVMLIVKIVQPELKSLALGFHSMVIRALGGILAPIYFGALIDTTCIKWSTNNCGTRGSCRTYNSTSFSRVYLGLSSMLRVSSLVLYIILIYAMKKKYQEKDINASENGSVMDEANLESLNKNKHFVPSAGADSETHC
Method: (§1) Chinese Hamster Ovary (CHO) were used for all transporters except for P-gp that was studied in Madin-Darby Canine Kidney (MDR1-MDCKII) cells. The inhibition of the activity of each transporter is evaluated by measuring changes in the transport of their specific substrates by fluorometry.

[4] = target: CYP 2B6 (Homo sapiens, UniProt P20813); experiment: CYP inhibition in human liver microsomes; settings: 10 μM
Chain of CYP 2B6 (P20813 whole entry): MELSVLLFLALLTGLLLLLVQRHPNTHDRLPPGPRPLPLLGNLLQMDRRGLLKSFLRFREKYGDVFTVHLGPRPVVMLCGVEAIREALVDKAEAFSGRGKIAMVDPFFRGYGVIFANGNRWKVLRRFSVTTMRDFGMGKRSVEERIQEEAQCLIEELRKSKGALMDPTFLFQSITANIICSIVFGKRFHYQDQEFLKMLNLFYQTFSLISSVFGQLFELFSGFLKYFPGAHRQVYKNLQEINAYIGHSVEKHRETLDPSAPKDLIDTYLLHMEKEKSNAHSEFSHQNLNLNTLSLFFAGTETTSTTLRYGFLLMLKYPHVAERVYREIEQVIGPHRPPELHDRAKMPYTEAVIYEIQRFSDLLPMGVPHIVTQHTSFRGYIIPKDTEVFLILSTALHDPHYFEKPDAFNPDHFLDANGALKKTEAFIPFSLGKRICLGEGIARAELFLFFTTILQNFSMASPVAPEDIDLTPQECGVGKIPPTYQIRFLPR
Description: Reaction was initiated by adding NADPH-generating compounds and after stopping of reaction and samples treatment; HPLC-UV/VIS and HPLC-MS/MS detection were used for detection of peak areas corresponding to the metabolite of each substrate.

[5] = Metabolic stability in dog liver microsomes (DLM); type: in vitro ADME; settings: dog LM, NADPH
Method: The investigation was performed on liver microsomes (LM) coming from mouse (MLM), rat (RLM), dog (DLM) and human (HLM).
3pMBP was incubated with liver microsome pools supplemented with NADPH as cofactor. Samples were taken at 5 different times (0, 10, 20, 30 and 60 minutes) and samples were monitored for parent compound disappearance in MRM mode using LC/MS-MS. The Intrinsic Clearance and half-life have been determined. Verapamil was used as reference compound.

[6] = in vitro; type: in vitro ADME, monkeys; settings: monkey
[7] = Distribution in the brain of mice; type: in vivo
[8] = target: OAT1 (Homo sapiens, UniProt Q4U2R8); experiment: Cellular transporter inhibition, CHO cells (fluorometry); settings: 10 μM
Chain of OAT1 (Q4U2R8 whole entry): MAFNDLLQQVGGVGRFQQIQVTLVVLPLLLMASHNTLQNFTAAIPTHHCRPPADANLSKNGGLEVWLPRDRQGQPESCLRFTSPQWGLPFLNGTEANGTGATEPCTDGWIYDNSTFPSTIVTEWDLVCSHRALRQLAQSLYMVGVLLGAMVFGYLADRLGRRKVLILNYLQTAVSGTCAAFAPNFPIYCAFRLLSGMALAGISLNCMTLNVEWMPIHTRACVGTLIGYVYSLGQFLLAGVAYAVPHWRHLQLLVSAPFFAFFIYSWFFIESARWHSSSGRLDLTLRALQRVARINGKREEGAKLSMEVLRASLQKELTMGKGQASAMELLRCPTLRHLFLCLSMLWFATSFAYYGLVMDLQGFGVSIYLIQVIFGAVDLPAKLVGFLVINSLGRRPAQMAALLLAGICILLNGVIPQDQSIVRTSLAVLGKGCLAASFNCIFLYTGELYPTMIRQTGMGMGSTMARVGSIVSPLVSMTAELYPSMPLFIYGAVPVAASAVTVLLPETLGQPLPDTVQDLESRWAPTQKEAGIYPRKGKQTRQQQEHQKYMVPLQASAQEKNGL
Method: as §1

[9] = tested on: THC-induced catalepsy; experiment: THC-induced catalepsy (catalepsy bar test); type: in vivo; settings: per os 3 h before THC 10 mg/kg; mice
Method: Measuring of the catalepsy induced by THC was started 30 min after THC injection.
Catalepsy was measured by the catalepsy bar test. The forepaws of mice were placed on a bar fixed horizontally at 3.5 cm from the bench surface. The latency for moving from the bar was recorded with a cut-off time fixed at 420 s (7 min). Each mouse was submitted to a maximum of four consecutive trials. The maximum latency shown at one trial was selected as the measure of catalepsy.

[10] = tested on: THC-induced conditioned gaping; experiment: THC-induced conditioned gaping behavior; type: in vivo; settings: rats
Method: Three days after cannulation surgery, rats were adapted to the taste reactivity chamber. Rats were individually placed in a Taste Reaction (TR) chamber with their cannulas attached to an infusion pump to infuse water into their intraoral cavity over a period of 2 min at the rate of 1 ml/min and then returned to their home cage. Rats received the first of three daily conditioning trials three days after the adaptation trial. […] Rats received the pre-treatment drug 3 hours prior to conditioning via feeding tube. They were then placed in the TR chamber and infused with 0.1% saccharin solution for 2 min at a rate of 1 ml/min while orofacial reactions were recorded. Immediately following saccharin infusion, the rats were injected […] with 10 mg/kg THC or VEH and returned to their home cage. Twenty-four hour later, the rats underwent a drug free test trial where they were placed in the TR chamber and infused with 0.1% saccharin solution for 2 min at a rate of 1 ml/min and orofacial reactions were recorded.

[11] = target: P-gp (Homo sapiens, UniProt P08183); experiment: Cellular transporter inhibition, MDR1-MDCKII cells (fluorometry); settings: 10 μM
Chain of P-gp (P08183 whole entry): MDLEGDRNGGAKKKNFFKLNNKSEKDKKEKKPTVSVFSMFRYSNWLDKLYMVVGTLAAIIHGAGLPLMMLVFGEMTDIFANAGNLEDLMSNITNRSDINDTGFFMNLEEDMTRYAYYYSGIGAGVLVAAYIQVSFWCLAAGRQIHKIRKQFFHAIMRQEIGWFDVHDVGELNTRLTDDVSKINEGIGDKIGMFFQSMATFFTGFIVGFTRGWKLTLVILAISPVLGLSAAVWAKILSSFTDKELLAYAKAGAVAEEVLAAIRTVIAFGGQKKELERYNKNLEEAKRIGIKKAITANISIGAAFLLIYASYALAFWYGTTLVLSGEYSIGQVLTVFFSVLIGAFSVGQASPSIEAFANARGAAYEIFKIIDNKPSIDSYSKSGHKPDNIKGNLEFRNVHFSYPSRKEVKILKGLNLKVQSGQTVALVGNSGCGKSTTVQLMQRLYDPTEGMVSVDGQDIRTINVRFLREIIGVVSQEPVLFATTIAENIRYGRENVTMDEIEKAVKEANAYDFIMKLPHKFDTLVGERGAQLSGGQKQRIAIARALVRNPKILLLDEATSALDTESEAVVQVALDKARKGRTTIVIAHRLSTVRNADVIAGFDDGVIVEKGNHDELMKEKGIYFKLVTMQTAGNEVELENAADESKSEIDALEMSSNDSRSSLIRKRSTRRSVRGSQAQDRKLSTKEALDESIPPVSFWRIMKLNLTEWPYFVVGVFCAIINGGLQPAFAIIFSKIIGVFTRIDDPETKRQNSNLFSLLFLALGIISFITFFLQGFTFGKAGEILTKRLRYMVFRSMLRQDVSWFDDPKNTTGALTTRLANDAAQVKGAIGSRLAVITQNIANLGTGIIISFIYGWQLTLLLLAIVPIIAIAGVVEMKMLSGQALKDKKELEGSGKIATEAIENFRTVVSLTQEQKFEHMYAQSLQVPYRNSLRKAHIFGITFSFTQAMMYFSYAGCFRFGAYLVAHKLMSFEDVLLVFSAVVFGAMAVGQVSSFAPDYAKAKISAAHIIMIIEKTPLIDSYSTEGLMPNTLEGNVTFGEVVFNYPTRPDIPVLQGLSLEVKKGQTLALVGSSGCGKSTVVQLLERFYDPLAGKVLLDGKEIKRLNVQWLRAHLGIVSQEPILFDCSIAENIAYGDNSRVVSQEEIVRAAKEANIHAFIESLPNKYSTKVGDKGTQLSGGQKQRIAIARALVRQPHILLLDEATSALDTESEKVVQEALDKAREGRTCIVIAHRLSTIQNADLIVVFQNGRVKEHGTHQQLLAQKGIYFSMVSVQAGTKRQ
Method: as §1

[12] = target: T2, human CB1 (hCB1) receptor (Homo sapiens, UniProt P21554); experiment: THC-induced increase in MAPK phosphorylation, HEK-293 cells transiently transfected with hCB1 (western blot, P-MAPK/MAPK); type: cell-based; settings: THC 10 μM, 5 min; HEK-293 transiently expressing the hCB1
T2 construct: expressed in transfected cells; host or cells: HEK-293
T2 sequence (P21554 whole entry): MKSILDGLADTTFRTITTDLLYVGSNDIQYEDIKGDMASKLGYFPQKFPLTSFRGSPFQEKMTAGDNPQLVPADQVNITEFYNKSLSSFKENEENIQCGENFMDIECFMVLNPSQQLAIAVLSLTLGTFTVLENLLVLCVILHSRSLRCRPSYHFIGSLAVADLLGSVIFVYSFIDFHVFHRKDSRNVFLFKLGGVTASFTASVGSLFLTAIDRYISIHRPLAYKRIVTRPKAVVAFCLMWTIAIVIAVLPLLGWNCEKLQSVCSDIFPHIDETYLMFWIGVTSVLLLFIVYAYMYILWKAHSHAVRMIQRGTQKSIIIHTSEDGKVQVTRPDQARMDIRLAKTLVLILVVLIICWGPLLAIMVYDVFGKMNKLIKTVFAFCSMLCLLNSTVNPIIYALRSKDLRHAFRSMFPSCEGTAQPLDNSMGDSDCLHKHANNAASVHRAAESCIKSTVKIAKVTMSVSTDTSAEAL
Method: The difference in the concentrations of THC used in the two experiments is related to the different efficiency of transfection of hCB1 cDNA plasmid, which is stable in Experiment 1 and transient in Experiment 2.
MAPK phosphorylation (P-Erk1/2MAPK proteins) was measured by western blot. In experiment 1 the mitochondrial marker CoxIV and in experiment 2 the un-phosphorylated MAPK proteins were used as loading controls. The P-MAPK/CoxIV and P-MAPK/MAPK ratios were calculated and the data expressed as % of vehicle-treated cells.

[13] = 3 h prior to conditioning with THC 10 mg/kg

T1 sequence (Q12809 whole entry): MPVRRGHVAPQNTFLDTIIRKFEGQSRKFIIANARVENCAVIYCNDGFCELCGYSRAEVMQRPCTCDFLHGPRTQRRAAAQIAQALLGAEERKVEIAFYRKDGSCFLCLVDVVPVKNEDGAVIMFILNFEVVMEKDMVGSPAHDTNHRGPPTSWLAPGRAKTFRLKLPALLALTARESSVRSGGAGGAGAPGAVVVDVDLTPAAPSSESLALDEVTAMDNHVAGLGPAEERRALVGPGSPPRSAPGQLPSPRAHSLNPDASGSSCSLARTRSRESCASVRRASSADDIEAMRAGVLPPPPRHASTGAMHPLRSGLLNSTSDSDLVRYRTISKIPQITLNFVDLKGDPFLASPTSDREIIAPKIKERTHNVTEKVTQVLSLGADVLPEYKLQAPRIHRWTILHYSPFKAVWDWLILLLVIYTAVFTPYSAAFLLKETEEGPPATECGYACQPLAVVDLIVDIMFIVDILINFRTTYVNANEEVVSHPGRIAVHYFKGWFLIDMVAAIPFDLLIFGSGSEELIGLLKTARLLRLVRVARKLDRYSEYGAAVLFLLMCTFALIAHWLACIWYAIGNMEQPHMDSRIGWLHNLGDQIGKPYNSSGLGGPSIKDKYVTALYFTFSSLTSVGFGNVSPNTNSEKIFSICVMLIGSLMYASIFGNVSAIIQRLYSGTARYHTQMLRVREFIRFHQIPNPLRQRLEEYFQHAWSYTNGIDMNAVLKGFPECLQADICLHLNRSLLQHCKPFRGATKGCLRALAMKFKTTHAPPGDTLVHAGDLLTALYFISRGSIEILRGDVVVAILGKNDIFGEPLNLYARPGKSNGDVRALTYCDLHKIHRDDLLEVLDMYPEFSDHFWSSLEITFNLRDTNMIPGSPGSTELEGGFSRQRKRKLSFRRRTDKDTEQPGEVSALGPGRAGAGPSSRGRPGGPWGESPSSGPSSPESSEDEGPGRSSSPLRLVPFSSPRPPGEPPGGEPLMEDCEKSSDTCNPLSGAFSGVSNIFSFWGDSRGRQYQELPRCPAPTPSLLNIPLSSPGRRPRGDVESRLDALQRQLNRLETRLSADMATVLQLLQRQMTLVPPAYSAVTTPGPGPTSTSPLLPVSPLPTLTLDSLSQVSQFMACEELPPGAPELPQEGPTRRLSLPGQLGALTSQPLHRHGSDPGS

SMILES: COc1ccc(CO[C@H]2CC[C@@]3(C)C(=CC[C@H]4[C@@H]5CC[C@H](C(C)=O)[C@@]5(C)CC[C@@H]43)C2)cc1 [3pMBP, 3β-(4-methoxybenzyloxy)pregn-5-en-20-one]
- hERG tail currents [1]: did not modify hERG (human ether-ago-go-related gene) tail currents
- Behavior (Irwin test) and body temperature [2]: did not modify
- Activity of OATP1B1 [3]: did not modify the activity
- Inhibition of CYP 2B6 activity [4]: no significant inhibition
- half-life [5]: 53.4 min
- microsomal CLint ([5]; read-out: intrinsic clearance): 26 µL/min/mg
- fraction unbound [6]: 0.01 to 0.03
- AUC in the brain vs plasma ([7]; conclusion sentence, species and dose not stated): four times higher AUC in the brain than in the plasma
- tmax in the brain ([7]; mice, per os): 420 min
- Activity of OAT1 [8]: did not modify the activity
- % inhibition [9]: 50%
- ID50 [9]: 5 µg/kg
- ID100 [9]: 50 µg/kg
- Establishment of conditioned gaping (mean number of gaping reactions) ([10]; 0.005 and […], THC 10 mg/kg): interfered the establishment of conditioned gaping by reducing the mean number of gaping reactions
- % inhibition [10, 13]: 50%
- ID50 [10, 13]: <5 µg/kg
- Activity of P-gp [11]: did not modify the activity
- % inhibition [12]: 100%
- ID100 [12]: 100 nM
